Results as given in patent US20240067651A1 (Biohaven Therapeutics Ltd., priority 2019, published 2024).
Read-outs that look alike come from different tables or passages of the source. Each block holds one compound with its values, some of them ahead of it.

What was measured:
Caco-2 monolayer = experiment: Caco-2 Permeability Assay; assay type: in vitro ADME, human
In short: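 Caco-2 monolayers cultured 21 days (TEER >600 […]); test article at 10 μM in HBSS/HEPES pH 7.4 transport medium, dosed apical or basolateral, ±Pgp inhibitor. Incubated 90 min at 37 °C; both compartments quantified by LC-MS/MS. Papp (A→B, B→A), efflux ratio and % recovery calculated.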

[1] = Stability in Simulated Gastric Fluid (SGF); assay type: in vitro ADME; design: key: % parent compound remaining relative to 0-minute sample
In short: (§1)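 Stability was tested at 37° C in pepsin-supplemented gastric fluid, pH 1.2, and pancreatin-supplemented intestinal fluid, pH 6.8, using 2 μg/mL final compound over 0–60 minutes. Remaining parent was quantified by LC-MS/MS and expressed as a percentage of time zero.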

[2] = Stability in Simulated Intestinal Fluid (SIF); assay type: in vitro ADME; design: key: % parent compound remaining relative to 0-minute sample
In short: as §1

Plasma Stability = assay type: in vitro ADME, human
In short: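 Compounds incubated at 1 μM in fresh human plasma for 1 hour at 37° C, then protein-precipitated with acetonitrile/formic acid containing internal standard. Remaining parent measured by LC-MS/MS in triplicate, expressed as percent of control remaining.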

[3] = % remaining at 1 h in simulated gastric fluid
[4] = % remaining at 1 h in simulated intestinal fluid
[5] = % remaining at 1 h in human plasma
[6] = % @ 1 h (remaining) in simulated gastric fluid
[7] = % @ 1 h (remaining) in simulated intestinal fluid
[8] = % @ 1 h (remaining) in human plasma
[9] = Caco-2 monolayer, the 15th table
[10] = % remaining at 1 h in human plasma, the 15th table
[11] = bare number, unit or time not given, the 15th table Examples 204-207
[12] = simulated gastric fluid, remaining at 1 h
[13] = simulated intestinal fluid, remaining at 1 h

SMILES: CC(C)OCCn1c(SCOC(=O)OCCOCCN)nc(=O)c2c1ccn2COC(=O)OCCOCCN.O=C(O)C(F)(F)F.O=C(O)C(F)(F)F [Example 124]
Caco-2 Papp (Caco-2 monolayer; Caco-2 monolayer): 1.18 ×10⁻⁶ cm/s
SGF [1, 3]: 67% remaining
SIF [2, 4]: 57% remaining
human Plasma stability (Plasma Stability; [5]): 28% remaining

Caco-2 Papp (Caco-2 monolayer; Caco-2 monolayer): 12.1 ×10⁻⁶ cm/s
SGF [1, 3]: 84% remaining
SIF [2, 4]: 21% remaining
human Plasma stability (Plasma Stability; [5]): 1% remaining
SMILES: CC(C)OCCn1c(=S)[nH]c(=O)c2c1ccn2COC(=O)[C@@H]1CCN(C(=O)OC(C)(C)C)C1 [Example 129, 1-tert-butyl 3-{4-oxo-1-[2-(propan-2-yloxy)ethyl]-2-sulfanylidene-1H,2H,3H,4H,5H-pyrrolo[3,2-d]pyrimidin-5-yl} methyl (3R)-pyrrolidine-1,3-dicarboxylate]

SMILES: CCCCN(C)C(=O)OCSc1nc(=O)c2c(ccn2COC(=O)N(C)CCCC)n1CCOC(C)C [Example 162, {2-[{{[butyl(methyl)carba-moyl]oxy}methyl)sulfanyl]-4-oxo-1-[2-(propan-2-yloxy)ethyl]-1H,4H,5H-pyrrolo[3,2-d]pyrimidin-5-yl}methyl N-butyl-N-methylcarbamate]
Caco-2 Papp (Caco-2 monolayer; Caco-2 monolayer): 28.7 ×10⁻⁶ cm/s
SGF [1, 6]: 98% @ 1 h
SIF [2, 7]: 96% @ 1 h
human Plasma stability (Plasma Stability; [8]): 96% @ 1 h

SMILES: CCN(C)C(=O)OCSc1nc(=O)c2c(ccn2COC(=O)N(C)CC)n1CCOC(C)C.O=C(O)C(F)(F)F [Example 169, trifluoroacetic acid {2-[{{[ethyl(methyl)carba-moyl]oxy}methyl)sulfanyl]-4-oxo-1-[2-(propan-2-yloxy)ethyl]-1H,4H,5H-pyrrolo[3,2-d]pyrimidin-5-yl}methyl N-ethyl-N-methylcarbamate]
Caco-2 Papp (Caco-2 monolayer; Caco-2 monolayer): 10.9 ×10⁻⁶ cm/s
SGF [1, 6]: 99% @ 1 h
SIF [2, 7]: 81% @ 1 h
human Plasma stability (Plasma Stability; [8]): 89% @ 1 h

SMILES: CC(C)OCCn1c(SCOC(=O)N(C)Cc2ccccc2)nc(=O)c2c1ccn2COC(=O)N(C)Cc1ccccc1.O=C(O)C(F)(F)F [Example 174, trifluoroacetic acid {2-[{{[benzyl(methyl)carba-moyl]oxy}methyl)sulfanyl]-4-oxo-1-[2-(propan-2-yloxy)ethyl]-1H,4H,5H-pyrrolo[3,2-d]pyrimidin-5-yl}methyl N-benzyl-N-methylcarbamate]
Caco-2 Papp (Caco-2 monolayer; Caco-2 monolayer): 30.4 ×10⁻⁶ cm/s
SGF [1, 6]: 99% @ 1 h
SIF [2, 7]: 99% @ 1 h
human Plasma stability (Plasma Stability; [8]): 99% @ 1 h

Caco-2 Papp (nm/s) (Caco-2 monolayer; [9]): unstable
SGF ([1]; % remaining at 1 h in simulated gastric fluid, the 15th table): 98% remaining
SIF ([2]; % remaining at 1 h in simulated intestinal fluid, the 15th table): 55% remaining
human Plasma stability (Plasma Stability; [10]): 86% remaining
SMILES: CC(C)OCCn1c(=S)[nH]c(=O)c2c1ccn2CO [Example 197]

Caco-2 Papp (Caco-2 monolayer; [9]): 0.267 ×10⁻⁶ cm/s
SGF [1, 11]: 90
SIF [2, 11]: 29
human Plasma stability (Plasma Stability; [10]): 92% remaining
SMILES: CCCCCCCCOC(=O)OCSc1nc(=O)c2c(ccn2COC(=O)OCCCCCCCC)n1CCOC(C)C [Example 207, octyl {2-[{{[(octyloxy)carbon-yl]oxy}methyl)sulfanyl]-4-oxo-1-[2-(propan-2-yloxy)ethyl]-1H,4H,5H-pyrrolo[3,2-d]pyrimidin-5-yl} methyl carbonate]

Caco-2 Papp (Caco-2 monolayer; Caco-2 monolayer): 8.53 ×10⁻⁶ cm/s
SGF ([1]; simulated gastric fluid, at 1 h): 95% remaining
SIF ([2]; simulated intestinal fluid, at 1 h): 94% remaining
human Plasma stability (Plasma Stability; human plasma, at 1 h): 88% remaining
SMILES: COc1ccc(N(C)C(=O)OCSc2nc(=O)c3[nH]ccc3n2CCOC(C)C)cc1 [Example 254]

SMILES: CC(C)OCCn1c(SCOC(=O)[C@H](N)Cc2ccccc2)nc(=O)c2c1ccn2COC(=O)[C@H](N)Cc1ccccc1.O=C(O)C(F)(F)F.O=C(O)C(F)(F)F [Example 312, bis(trifluoroacetic acid) {[5-({[(2R)-2-amino-3-phenylpropanoyl]oxy}methyl)-4-oxo-1-[2-(propan-2-yloxy)ethyl]-1H,4H,5H-pyrrolo[3,2-d]pyrimidin-2-yl]sulfanyl} methyl (2R)-2-amino-3-phenylpropanoate]
Caco-2 Papp (Caco-2 monolayer; Caco-2): >0.0994 ×10⁻⁶ cm/s
SGF ([1]; % remaining @ 1 h): 99% @ 1 h
SIF ([2]; % remaining @ 1 h): 29% @ 1 h
human Plasma stability (Plasma Stability; % remaining @ 1 h): 24% @ 1 h

SMILES: CC(C)C[C@H](NC(=O)OC(C)(C)C)C(=O)OCSc1nc(=O)c2c(ccn2COC(=O)[C@H](CC(C)C)NC(=O)OC(C)(C)C)n1CCOC(C)C [Example 315, {[5-({[(2S)-2-{[ (tert-butoxy)carbonyl]amino}-4-methylpentanoyl]oxy}methyl)-4-oxo-1-[2-(propan-2-yloxy)ethyl]-1H,4H,5H-pyrrolo[3,2-d]pyrimidin-2-yl]sulfanyl} methyl (2S)-2-{[(tert-butoxy)carbonyl]amino}-4-methylpentanoate]
Caco-2 Papp (Caco-2 monolayer; Caco-2): 14.1 ×10⁻⁶ cm/s
SGF ([1]; % remaining @ 1 h): 78%@ 1 h
SIF ([2]; % remaining @ 1 h): 5%@ 1 h
human Plasma stability (Plasma Stability; % remaining @ 1 h): 7%@ 1 h

SMILES: CC(C)OCCn1c(SCOC(=O)CCCCOC(=O)CNC(=O)OC(C)(C)C)nc(=O)c2c1ccn2COC(=O)CCCCOC(=O)CNC(=O)OC(C)(C)C [Example 329, ({5-[{{5-[(2-{[(tert-butoxy)carbonyl]amino}acetyl)oxy]pentanoyl}oxy)methyl]-4-oxo-1-[2-(propan-2-yloxy)ethyl]-1H,4H,5H-pyrrolo[3,2-d]pyrimidin-2-yl}sulfanyl)methyl 5-[(2-{[(tert-butoxy)carbonyl]amino}acetyl)oxy] pentanoate]
Caco-2 Papp (Caco-2 monolayer): 5.96 ×10⁻⁶ cm/s
SGF ([1]; % remaining @ 1 h): 95% @ 1 h
SIF ([2]; % remaining @ 1 h): 35% @ 1 h
human Plasma stability (Plasma Stability; % remaining @ 1 h): 1% @ 1 h

SMILES: CC(C)C[C@H](NC(=O)OC(C)(C)C)C(=O)OCCCCC(=O)OCn1c(=O)c2c(ccn2COC(=O)CCCCOC(=O)[C@H](CC(C)C)NC(=O)OC(C)(C)C)n(CCOC(C)C)c1=S [Example 344, 5-[(3-{[(5-{[(2S)-2-{[(tert-butoxy)carbonyl]amino}-4-methylpentanoyl]oxy}penta-noyl)oxy]methyl}-4-oxo-1-[2-(propan-2-yloxy)ethyl]-2-sulfanylidene-1H,2H,3H,4H,5H-pyrrolo[3,2-d]pyrimidin-5-yl)methoxy]-5-oxopentyl (2S)-2-{[(tert-butoxy)carbonyl]amino}-4-methylpentanoate]
Caco-2 Papp (Caco-2 monolayer; Caco-2): 2.46 ×10⁻⁶ cm/s
SGF ([1]; % remaining @ 1 h): 100% remaining
SIF ([2]; % remaining @ 1 h): 26% remaining
human Plasma stability (Plasma Stability; % remaining @ 1 h): 28% remaining

SMILES: CC(C)C[C@@H](NC(=O)OC(C)(C)C)C(=O)OCCCCC(=O)OCn1c(=O)c2c(ccn2COC(=O)CCCCOC(=O)[C@@H](CC(C)C)NC(=O)OC(C)(C)C)n(CCOC(C)C)c1=S [Example 349, 5-[(3-{[(5-{[(2R)-2-{[(tert-butoxy)carbonyl]amino}-4-methylpentanoyl]oxy}penta-noyl)oxy]methyl}-4-oxo-1-[2-(propan-2-yloxy)ethyl]-2-sulfanylidene-1H,2H,3H,4H,5H-pyrrolo[3,2-d]pyrimidin-5-yl)methoxy]-5-oxopentyl (2R)-2-{[(tert-butoxy)carbonyl]amino}-4-methylpentanoate]
Caco-2 Papp (Caco-2 monolayer; Caco-2 monolayer): 4.99 ×10⁻⁶ cm/s
SGF [1, 12]: 99% remaining
SIF [2, 13]: 8% remaining
human Plasma stability (Plasma Stability; human plasma, remaining at 1 h): 6% remaining

SMILES: CC(C)OCCn1c(SCOC(=O)CCCOC(=O)[C@H](NC(=O)OC(C)(C)C)C(C)C)nc(=O)c2c1ccn2COC(=O)CCCOC(=O)[C@H](NC(=O)OC(C)(C)C)C(C)C [Example 357, 4-{[2-({[(4-{[(2R)-2-{[(tert-butoxy)carbonyl]amino}-3-methylbutanoyl]oxy}buta-noyl)oxy]methyl}sulfanyl)-4-oxo-1-[2-(propan-2-yloxy)ethyl]-1H,4H,5H-pyrrolo[3,2-d]pyrimidin-5-yl]methoxy}-4-oxobutyl (2R)-2-{[(tert-butoxy)carbonyl]amino}-3-methylbutanoate]
Caco-2 Papp (Caco-2 monolayer; Caco-2 monolayer): 1.5 ×10⁻⁶ cm/s
SGF [1, 12]: 98% remaining
SIF [2, 13]: 14% remaining
human Plasma stability (Plasma Stability; human plasma, remaining at 1 h): 5% remaining

SMILES: CC(C)OCCn1c(=S)n(COC(=O)CCCOC(=O)[C@H](NC(=O)OC(C)(C)C)C(C)C)c(=O)c2c1ccn2COC(=O)CCCOC(=O)[C@H](NC(=O)OC(C)(C)C)C(C)C [Example 359, (((1-(2-isopropoxyethyl)-4-oxo-2-thioxo-1,4-dihydro-3H-pyrrolo[3,2-d]pyrimidine-3,5(2H)-diyl)bis(methylene))bis(oxy))bis(4-oxobutane-4,1-diyl) (2R,2′R)-bis(2-((tert-butoxycarbonyl)amino)-3-methylbutanoate)]
Caco-2 Papp (Caco-2 monolayer; Caco-2 monolayer): <0.297 ×10⁻⁶ cm/s
SGF [1, 12]: 99% remaining
SIF [2, 13]: 41% remaining
human Plasma stability (Plasma Stability; human plasma, remaining at 1 h): 8% remaining

SMILES: CC(C)OCCn1c(=S)n(COC(=O)CCCOC(=O)[C@H](N)C(C)C)c(=O)c2c1ccn2COC(=O)CCCOC(=O)[C@H](N)C(C)C.O=C(O)C(F)(F)F.O=C(O)C(F)(F)F [Example 360, bis(trifluoroacetic acid) 4-[(3-{[(4-{[(2R)-2-amino-3-methylbutanoyl]oxy}buta-noyl)oxy]methyl}-4-oxo-1-[2-(propan-2-yloxy)ethyl]-2-sulfanylidene-1H,2H,3H,4H,5H-pyrrolo[3,2-d]pyrimidin-5-yl)methoxy]-4-oxobutyl (2R)-2-amino-3-methylbutanoate]
Caco-2 Papp (Caco-2 monolayer; Caco-2 monolayer): <0.628 ×10⁻⁶ cm/s
SGF [1, 12]: 46% remaining
SIF [2, 13]: 56% remaining
human Plasma stability (Plasma Stability; human plasma, remaining at 1 h): 3% remaining
